Assay results as given in US20240287025A1, “TETRAHYDROQUINOLINE (THQ) COUMPOUNDS” (Centre National de la Recherche Scientifique, priority 2021, published 2024).

Key:
[1] = target: Brd4 BD1 (Homo sapiens (Human), UniProt O60885); assay: HTRF evaluation of bromodomain inhibitors, Brd4 BD1; format: binding; conditions: H4ac4 peptide 50 nM, 4 h at 4° C.
Procedure: (§1) HTRF reagents and buffers were purchased from Cisbio Bioassays. The assay used a terbium (Ill) cryptate donor reagent conjugated to an anti-GST antibody (MAb anti-GST-Tb; GSTTLA), a streptavidin-conjugated acceptor reagent (streptavidin-d2) and Cisbio proprietary buffers (EPlgeneous Binding Domain Diluent and Detection buffer, respectively). GST-tagged bromodomains (BDs) were expressed in E. coli and purified using standard procedures. Incubation of GST-tagged BDs with biotinylated acetylated H4 peptide (H4K5acK8acK12acK16ac, here named H4ac4) brings the donor and acceptor into close proximity and allows for a FRET reaction. GST-tagged proteins in 25 mM Hepes pH 7.5, 150 mM NaCl, 0.5 mM DTT were assayed at a final concentration of 5 nM. Biotinylated H4ac4 peptides were used at a final concentration of 50, 600 nM in assays involving Brd4 BD1, Brd4 BD2, respectively. The antibody-conjugated donor was used at 0.5 nM and the streptavidin-conjugated acceptor was used at ⅛ of the H4ac4 peptide concentration. Inhibitors were tested by performing an eleven-point dilution series with a maximal final concentration of […]. These concentrations allowed a fixed DMSO concentration at 0.2%, critical for a Z′ factor ≥0.8. Components were incubated at 4° C. for 4 h (BD1) or for 24 h (BD2). Experiments were performed in 384-well white plates (Greiner ref. 781080) and analyzed in a ClarioStar plate reader (BMG LABTECH, excitation at 330 nm and emission at 620 and 665 nm, corresponding to the donor and acceptor emission peaks, respectively; the 665/620 ratio is used to calculate the specific HTRF signal) with an integration delay of 60 μs and an integration time of 400 μs.

[2] = target: Brd4 BD2 (Homo sapiens (Human), UniProt O60885); assay: HTRF evaluation of bromodomain inhibitors, Brd4 BD2; format: binding; conditions: for IC50: HTRF, H4ac4 peptide 600 nM, 24 h at 4° C.; for Selectivity BD2/BD1: ratio of the BD1 and BD2 IC50
Procedure: as §1

Structure (SMILES) | IC50 [1] | IC50 [2] | Selectivity BD2/BD1 [2]
CC[C@H]1[C@@H](C)[C@H](n2cc(-c3ccc(C(F)(F)F)cc3)nn2)c2cc(C(=O)OC)ccc2N1C(C)=O [XN, Methyl (2S,3R,4S)-1-acetyl-2-ethyl-3-methyl-4-(4-(4-(trifluoromethyl)phenyl)-1H-1,2,3-triazol-1-yl)-1,2,3,4-tetrahydroquinoline-6-carboxylate] | 14500 nM | 1910 nM | 7.6
C#CCOCCOCCOCCOCCOCCOCc1cn([C@@H]2c3cc(C(=O)OC)ccc3N(C(C)=O)[C@@H](CC)[C@H]2C)nn1 [XT, Methyl-(2S,3R,4S)-4-(4-(2,5,8,11,14,17-hexaoxaicos-19-yn-1-yl)-1H-1,2,3-triazol-1-yl)-1-acetyl-2-ethyl-3-methyl-1,2,3,4-tetrahydroquinoline-6-carboxylate] | ~35000 nM | 2040 nM | 17.2
C=CCCCC(=O)Nc1ccc(-c2ccc3c(c2)[C@@H](N=[N+]=[N-])[C@H](C)[C@H](CC)N3C(C)=O)cc1 [XC, N-(4-((2S,3R,4S)-1-acetyl-4-azido-2-ethyl-3-methyl-1,2,3,4-tetrahydroquinolin-6-yl)phel)hex-5-enamide] | 3100 nM | 2230 nM | 1.4
CC[C@H]1[C@@H](C)[C@H](n2cc(COCCOCCOCCOCc3cn(C4c5cc(C(=O)OC)ccc5N(C(C)=O)[C@@H](CC)[C@H]4C)nn3)nn2)c2cc(C(=O)OC)ccc2N1C(C)=O (stereo partly drawn) [XW, Dimethyl-4,4′-((2,5,8,11-tetraoxadodecane-1,12-diyl)bis(1H-1,2,3-triazole-4,1-diyl))(2S,2′S,3R,3′R,4S,4′S)-bis(1-acetyl-2-ethyl-3-methyl-1,2,3,4-tetrahydroquinoline-6-carboxylate)] | 1850 nM | 95.4 nM | 19.4
C#CCOCCOCCOCCOCc1cn([C@H]2c3cc(C(=O)OC)ccc3N(C(C)=O)[C@@H](CC)[C@@H]2C)nn1 [Compound 32, Methyl-(2S,3S,4R)-4-(4-(2,5,8,11-tetraoxatetradec-13-yn-1-yl)-1H-1,2,3-triazol-1-yl)-1-acetyl-2-ethyl-3-methyl-1,2,3,4-tetrahydroquinoline-6-carboxylate] | > 20000 nM | > 20000 nM | –
CCCCCc1cn([C@@H]2c3cc(C(=O)OC)ccc3N(C(C)=O)[C@@H](CC)[C@H]2C)nn1 [XF, Methyl (2S,3R,4S)-1-acetyl-2-ethyl-3-methyl-4-(4-pentyl-1H-1,2,3-triazol-1-yl)-1,2,3,4-tetrahydroquinoline-6-carboxylate] | 30000 nM | 1930 nM | 15.6
CC[C@H]1[C@@H](C)[C@H](n2cc(-c3ccc(OC)cc3)nn2)c2cc(C(=O)OC)ccc2N1C(C)=O [XM, Methyl (2S,3R,4S)-1-acetyl-2-ethyl-4-(4-(4-methoxyphenyl)-1H-1,2,3-triazol-1-yl)-3-methyl-1,2,3,4-tetrahydroquinoline-6-carboxylate] | 2980 nM | 563 nM | 5.3
CC[C@H]1[C@@H](C)[C@H](n2cc(COCCOCCOCCOCC#Cc3cccc4c3CN(C3CCC(=O)NC3=O)C4=O)nn2)c2cc(C(=O)OC)ccc2N1C(C)=O (stereo partly drawn) [YF, Methyl-(2S,3R,4S)-1-acetyl-4-(4-(14-(2-(2,6-dioxopiperidin-3-yl)-1-oxoisoindolin-4-yl)-2,5,8,11-tetraoxatetradec-13-yn-1-yl)-1H-1,2,3-triazol-1-yl)-2-ethyl-3-methyl-1,2,3,4-tetrahydroquinoline-6-carboxylate] | 17000 nM | 1330 nM | 12.7
CC[C@H]1[C@@H](C)[C@H](n2cc(COCCOCC#Cc3cccc4c3CN(C3CCC(=O)NC3=O)C4=O)nn2)c2cc(C(=O)OC)ccc2N1C(C)=O (stereo partly drawn) [YE, Methyl-(2S,3R,4S)-1-acetyl-4-(4-((2-((3-(2-(2,6-dioxopiperidin-3-yl)-1-oxoisoindolin-4-yl)prop-2-yn-1-yl)oxy)ethoxy)methyl)-1H-1,2,3-triazol-1-yl)-2-ethyl-3-methyl-1,2,3,4-tetrahydroquinoline-6-carboxylate] | 7870 nM | 486 nM | 16.2
CC[C@H]1[C@H](C)[C@@H](N=[N+]=[N-])c2cc(C(=O)OC)ccc2N1C(C)=O [Compound 30, Methyl-(2S,3S,4R)-1-acetyl-4-azido-2-ethyl-3-methyl-1,2,3,4-tetrahydroquinoline-6-carboxylate] | > 20000 nM | > 20000 nM | –
C=CCCCC(=O)Nc1ccc(-c2ccc3c(c2)[C@H](NC(=O)OC(C)C)[C@@H](C)[C@@H](CC)N3C(C)=O)cc1 [ent-XI] | 5740 nM | 2940 nM | 2.0
CC[C@H]1[C@@H](C)[C@H](n2cc(C3CCCCC3)nn2)c2cc(C(=O)OC)ccc2N1C(C)=O [XO, Methyl-(2S,3R,4S)-1-acetyl-4-(4-cyclohexyl-1H-1,2,3-triazol-1-yl)-2-ethyl-3-methyl-1,2,3,4-tetrahydroquinoline-6-carboxylate] | 5520 nM | 860 nM | 6.4
C=CCCCC(=O)Nc1ccc(-c2ccc3c(c2)[C@H](N=[N+]=[N-])[C@@H](C)[C@@H](CC)N3C(C)=O)cc1 [ent-XC] | 22400 nM | 4430 nM | 5.1
CC[C@H]1[C@@H](C)[C@H](n2cc(COCCOCCOCc3cn(C4c5cc(C(=O)OC)ccc5N(C(C)=O)[C@@H](CC)[C@H]4C)nn3)nn2)c2cc(C(=O)OC)ccc2N1C(C)=O (stereo partly drawn) [XV, Dimethyl-4,4′-((((oxybis(ethane-2,1-diyl))bis(oxy))bis(methylene))bis(1H-1,2,3-triazole-4,1-diyl))(2S,2'S,3R,3′R,4S,4'S)-bis(1-acetyl-2-ethyl-3-methyl-1,2,3,4-tetrahydroquinoline-6-carboxylate)] | 1670 nM | 2430 nM | 0.7
CC[C@H]1[C@@H](C)[C@H](Nc2ncc(Cl)cn2)c2cc(C(=O)OC)ccc2N1C(C)=O [XL, Methyl (2S,3S,4S)-1-acetyl-4-((5-chloropyrimidin-2-yl)amino)-2-ethyl-3-methyl-1,2,3,4-tetrahydroquinoline-6-carboxylate] | 10100 nM | 1130 nM | 9.0
CCCCCc1cn([C@H]2c3cc(C(=O)OC)ccc3N(C(C)=O)[C@H](CC)[C@@H]2C)nn1 [ent-XF] | 6300 nM | 8330 nM | 0.8
CC[C@H]1[C@@H](C)[C@H](N=[N+]=[N-])c2cc(C(F)(F)F)ccc2N1C(C)=O [YB, 1-((2S,3R,4S)-4-azido-2-ethyl-3-methyl-6-(trifluoromethyl)-3,4-dihydroquinolin-1(2H)-yl)ethan-1-one] | 67000 nM | 7570 nM | 8.8
CC[C@H]1[C@@H](C)[C@H](n2cc(-c3ccccc3)nn2)c2cc(C(=O)OC)ccc2N1C(C)=O [Compound 28, Methyl-(2S,3R,4S)-1-acetyl-2-ethyl-3-methyl-4-(4-phenyl-1H-1,2,3-triazol-1-yl)-1,2,3,4-tetrahydroquinoline-6-carboxylate] | 8310 nM | 567 nM | 14.7
